Results published in patent US12384772B2, “Inhibitors” (VIVORYON THERAPEUTICS N.V., priority 2017, dated 2025).
Read-outs that look alike come from different tables or passages of the source.

Target: Glutaminyl cyclase (QC) (Homo sapiens (Human), UniProt Q16769)
Test: Glutaminyl cyclase assay, determination of IC50 values and calculation of Ki values (H-Gln-AMC substrate, pGAP auxiliary enzyme; pH 8.0 or pH 6.0)
Assay type: biochemical
Method: 10 mM compound stock solutions were prepared in DMSO. For IC50 determination compound stocks were serially diluted (1:3) in DMSO.
All measurements were performed with an EnSpire Perkin Elmer multimode reader using glutaminyl-7-amino-4-methylcoumarin (H-Gin-AMC) as substrate and recombinant pyroglutamyl aminopeptidase (pGAP) as auxiliary enzyme. Reactions were carried out at ambient temperature in black 96-well half area microplates. Each sample consisted of 1 μl test compound solution or solvent (DMSO) and 49 μl QC appropriately diluted in assay buffer (50 mM Tris/HCl, pH 8.0 or 50 mM MES buffer, pH=6.0). After a 10 min preincubation at ambient temperature the enzyme reaction was started by adding 50 μl of Gln-AMC-substrate/pGAP mixture in assay buffer. Final substrate concentrations were 50 and 200 μM for measurement at pH 8.0 or 6.0, respectively. Release of flourogenic AMC were recorded at excitation/emission wavelengths of 380/460 nm. Initial velocity of the enzyme reaction was calculated by linear regression of the first 10 data points using the Enspire Manager software. Final evaluation and calculation of IC50s were performed using GraphPad Prism software.
Ki-values were calculated according to the following formula: Ki=IC50/(1+[S]/Km), where: […]

[1] = pH 6, read-out: hQC Ki [μM] pH6
[2] = pH 8, read-out: hQC Ki [μM] pH8

Glutaminyl cyclase (QC), sequence (Q16769 29-361): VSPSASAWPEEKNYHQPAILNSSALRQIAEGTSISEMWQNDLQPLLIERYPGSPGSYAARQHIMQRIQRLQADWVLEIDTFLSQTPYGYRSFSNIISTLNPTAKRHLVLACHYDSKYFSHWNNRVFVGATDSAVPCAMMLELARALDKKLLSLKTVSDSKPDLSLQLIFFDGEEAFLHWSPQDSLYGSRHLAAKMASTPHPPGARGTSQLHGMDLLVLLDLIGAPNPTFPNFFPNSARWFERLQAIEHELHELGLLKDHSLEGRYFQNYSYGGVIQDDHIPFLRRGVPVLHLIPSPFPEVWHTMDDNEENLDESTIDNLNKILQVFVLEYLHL

| Compound | Ki [1] [µM] | Ki [2] [µM] |
| --- | --- | --- |
| COc1ccc(-c2ccccc2Nc2ccc(-c3nnc(N)s3)cc2)cc1 [C4, 5-(4-{[2-(4-methoxyphenyl)phenyl]amino}phenyl)-1,3,4-thiadiazol-2-amine] | 1.87 | 1.48 |
| COc1ccc(-c2cccnc2Nc2ccc(-c3nnc(N)s3)cc2)cc1 [C5, N-[4-(5-amino-1,3,4-thiadiazol-2-yl)phenyl]-3-(4-methoxyphenyl)pyridin-2-amine] | 4.17 | 4.7 |
| COc1ccc(-c2cnccc2Nc2ccc(-c3nnc(N)s3)cc2)cc1 [C6, N-[4-(5-amino-1,3,4-thiadiazol-2-yl)phenyl]-3-(4-methoxyphenyl)pyridin-4-amine] | 7.16 | 4.22 |
| COc1ccc(-c2cnccc2Nc2ccc(-c3nnc(N)s3)cc2)cc1OC [C7, N-[4-(5-amino-1,3,4-thiadiazol-2-yl)phenyl]-3-(3,4-dimethoxyphenyl)pyridin-4-amine] | 54.7 | 7.46 |
| Nc1nnc(-c2ccc(Nc3nccnc3-c3ccc(F)cc3)cc2)s1 [C9, N-[4-(5-amino-1,3,4-thiadiazol-2-yl)phenyl]-3-(4-fluorophenyl)pyrazin-2-amine] | 1.66 | 6.89 |
| Nc1nnc(-c2ccc(Nc3ccccc3-c3ccc(Oc4ccccc4)cc3)cc2)s1 [C10, 5-(4-{[2-(4-phenoxyphenyl)phenyl]amino}phenyl)-1,3,4-thiadiazol-2-amine] | 4.37 | 2.23 |
| CCCOc1ccc(-c2ccccc2Nc2ccc(-c3nnc(N)s3)cc2)cc1 [C11, 5-(4-([2-(4-propoxyphenyl)phenyl]amino)phenyl)-1,3,4-thiadiazol-2-amine] | 2.15 | 2.36 |
| CC(C)Oc1ccc(-c2ccccc2Nc2ccc(-c3nnc(N)s3)cc2)cc1 [C12, 5-[4-({2-[4-{propan-2-yloxy)phenyl]phenyl}amino)phenyl]-1,3,4-thiadiazol-2-amine] | 1.51 | 3.27 |
| Nc1nnc(CCCNc2ccccc2-c2ccc(F)cc2)s1 [Comp 93, 5-[3-({4′-fluoro-[1,1′-biphenyl]-2-yl}amino)propyl]-1,3,4-thiadiazol-2-amine] | 2.6 | 1100 |
| Nc1nnc(SCCNc2ccccc2-c2ccc(F)cc2)s1 [Comp 94, 5-{[2-({4′-fluoro-[1,1′-biphenyl]-2-yl}amino)ethyl]sulfanyl}-1,3,4-thiadiazol-2-amine] | 2.97 | 11.5 |
| COc1ccc(-c2ccccc2NCCSc2nnc(N)s2)cc1OC [Comp 178, 5-{[2-({3′,4′-dimethoxy-[1,1′-biphenyl]-2-yl}amino)ethyl]sulfanyl}-1,3,4-thiadiazol-2-amine] | 1.1 | 0.97 |
| Cn1cnnc1CCCNc1ccccc1-c1ccc(F)cc1 [Comp 328, 4′-fluoro-N-[3-(4-methyl-4H-1,2,4-triazol-3-yl)propyl]-[1,1′-biphenyl]-2-amine] | 1.97 | 2.86 |
| COc1ccc(-c2ccccc2NCCCc2nncn2C)cc1OC [Comp 384, 3′,4′-dimethoxy-N-[3-(4-methyl-4H-1,2,4-triazol-3-yl)propyl]-[1,1′-biphenyl]-2-amine] | 0.13 | 0.26 |
| Nc1nnc(-c2ccc(Nc3ncccc3-c3ccc(F)cc3)cc2)s1 [Comp 521, N-[4-(5-amino-1,3,4-thiadiazol-2-yl)phenyl]-3-(4-fluorophenyl)pyridin-2-amine] | 2.69 | 4.27 |
| COc1ccc(-c2ccccc2Nc2ccc(-c3nnc(N)s3)cc2)cc1OC [Comp 561, 5-(4-{[2-(3,4-dimethoxyphenyl)phenyl]amino}phenyl)-1,3,4-thiadiazol-2-amine] | 0.42 | 1.09 |
| Cn1cnnc1-c1ccc(Nc2ccccc2-c2ccc(F)cc2)cc1 [Comp 826, 4′-fluoro-N-[4-(4-methyl-4H-1,2,4-triazol-3-yl)phenyl]-[1,1‘-biphenyl]-2-amine] | 1.44 | 1.74 |
| Cn1cnnc1-c1ccc(Nc2cccnc2-c2ccc(F)cc2)cc1 [Comp 852, 2-(4-fluorophenyl)-N-[4-(4-methyl-4H-1,2,4-triazol-3-yl)phenyl]pyridin-3-amine] | 2.69 | 5.05 |
| COc1ccc(-c2ccccc2Nc2ccc(-c3nncn3C)cc2)cc1OC [Comp 854, 3′,4′-dimethoxy-N-[4-(4-methyl-4H-1,2,4-triazol-3-yl)phenyl]-[1,1′-biphenyl]-2-amine] | 0.44 | 1.48 |
| Nc1nnc(C2CCN(c3ccccc3-c3ccc(F)cc3)CC2)s1 [Comp 1075, 5-(1-{4′-fluoro-[1,1′-biphenyl]-2-yl}piperidin-4-yl)-1,3,4-thiadiazol-2-amine] | 0.09 | 0.248 |
| Fc1ccc(-c2ccccc2NCc2ccc3[nH]cnc3c2)cc1 [Comp 1226, N-[(1H-1,3-benzodiazol-5-yl)methyl]-4′-fluoro-[1,1′-biphenyl]-2-amine] | 5.91 | 5.29 |

| Compound | Ki [1] [µM] | Ki [2] [µM] |
| --- | --- | --- |
| Fc1ccc(-c2cccnc2NCc2ccc3[nH]cnc3c2)cc1 [Comp 1234, N-(1H-1,3-benzodiazol-5-ylmethyl)-3-(4-fluorophenyl)pyridin-2-amine] | 58.8 | 12.3 |
| Fc1ccc(-c2ncccc2NCc2ccc3[nH]cnc3c2)cc1 [Comp 1252, N-(1H-1,3-benzodiazol-5-ylmethyl)-2-(4-fluorophenyl)pyridin-3-amine] | 145 | 22 |
| COc1ccc(-c2ccccc2NCc2ccc3[nH]cnc3c2)cc1OC [Comp 1254, N-[(1H-1,3-benzodiazol-5-yl)methyl]-3′,4′-dimethoxy-[1,1′-biphenyl]-2-amine] | 0.12 | 0.27 |
| COc1ccc(-c2cccnc2NCc2ccc3[nH]cnc3c2)cc1OC [Comp 1262, N-(1H-1,3-benzodiazol-5-ylmethyl)-3-(3,4-dimethoxyphenyl)pyridin-2-amine] | 0.1 | 0.23 |
| COc1ccc(NS(=O)(=O)NCCSc2nncn2C)cc1OC [Comp 1332, [(3,4-dimethoxyphenyl)sulfamoyl]({2-[(4-methyl-4H-1,2,4-triazol-3-yl)sulfanyl]ethyl})amine] | 13.6 | 11.8 |
| COc1ccc(-c2ccccc2Nc2ccc(-c3nncn3C)cc2)cc1 [D3, N-[2-(4-methoxyphenyl)phenyl]-4-(4-methyl-4H-1,2,4-triazol-3-yl)aniline] | 0.99 | 1.69 |
| COc1ccc(-c2ncccc2Nc2ccc(-c3nncn3C)cc2)cc1 [D4, 2-(4-methoxyphenyl)-N-[4(4-methyl-4H-1,2,4-triazol-3-yl)phenyl]pyridin-3-amine] | 1.7 | 3.37 |
| Cn1cnnc1-c1ccc(Nc2ccccc2-c2ccc(Oc3ccccc3)cc2)cc1 [D6, 4-(4-methyl-4H-1,2,4-triazol-3-yl)-N-[2-(4-phenoxyphenyl)phenyl]aniline] | 1.33 | 1.81 |
| COc1ccc(-c2cnccc2Nc2ccc(-c3nncn3C)cc2)cc1OC [D7, 3-(3,4-dimethoxyphenyl)-N-[4-(4-methyl-4H-1,2,4-triazol-3-yl)phenyl]pyridin-4-amine] | – | 10.1 |
| Nc1nnc(CCCNS(=O)(=O)c2ccc(F)cc2)s1 [E2, N-[3-(5-amino-1,3,4-thiadiazol-2-yl)propyl]-4-fluorobenzene-1-sulfonamide] | 18.1 | 9.38 |
| Nc1nnc(SCCNS(=O)(=O)c2ccc(F)cc2)s1 [E3, N-{2-[(5-amino-1,3,4-thiadiazol-2-yl)sulfanyl]ethyl}-4-fluorobenzene-1-sulfonamide] | 19.9 | 26.5 |
| CS(=O)(=NCCCc1nnc(N)s1)c1ccc(F)cc1 (centres unmarked) [F2, 5-(3-{[(4-fluorophenyl)(methyl)oxo-λ^6-sulfanylidene]amino}propyl)-1,3,4-thiadiazol-2-amine] | 11.4 | 11.7 |
| Cn1cnnc1SCCNS(=O)(=O)c1ccc(F)cc1 [G2, 4-fluoro-N-{2-[(4-methyl-4H-1,2,4-triazol-3-yl)sulfanyl]ethyl}benzene-1-sulfonamide] | 8.84 | 11.5 |
| Nc1ncc(-c2ccc(NS(=O)(=O)c3ccc(F)cc3)cc2)s1 [I1, N-[4-(2-amino-1,3-thiazol-5-yl)phenyl]-4-fluorobenzene-1-sulfonamide] | 2.93 | 2.64 |
| Nc1ncc(C2CCN(S(=O)(=O)c3ccc(F)cc3)CC2)s1 [M1, 5-[1-(4-fluorobenzenesulfonyl)piperidin-4-yl]-1,3-thiazol-2-amine] | 1.32 | 1.7 |
| Nc1nnc(C2CCN(S(=O)(=O)c3ccc(F)cc3)CC2)s1 [M2, 5-[1-(4-fluorobenzenesulfonyl)piperidin-4-yl]-1,3,4-thiadiazol-2-amine] | 1.18 | 1.6 |
| Cn1cnnc1C1CCN(S(=O)(=O)c2ccc(F)cc2)CC1 [N1, 1-(4-fluorobenzenesulfonyl)-4-(4-methyl-4H-1,2,4-triazol-3-yl)piperidine] | 3.05 | 3.3 |
| COc1ccc(-c2ccccc2NCc2ccc3[nH]cnc3c2)cc1 [O3, N-(1H-1,3-benzodiazol-5-ylmethyl)-2-(4-methoxyphenyl)aniline] | 1.44 | 1.65 |
| COc1ccc(-c2ncccc2NCc2ccc3[nH]cnc3c2)cc1 [O4, N-(1H-1,3-benzodiazol-5-ylmethyl)-2-(4-methoxyphenyl)pyridin-3-amine] | 9.52 | 2.96 |
